The nature of series [1]: Animal body weight during the LNCaP xenograft experiment. The series is classed as in vivo, mice. On the procedure: The subcutaneous xenograft model was used to test whether sintokamides that inhibit activation of the androgen receptor in vitro have any effect on these tumors. CB3.1 was tested in vivo using the LNCaP subcutaneous xenograft model. […] LNCaP human prostate cancer cells express endogenous androgen receptor (AR) and prostate-specific antigen (PSA), and progress to androgen independence in castrated hosts. LNCaP cells (10^6/ml) were implanted subcutaneously into NOD-SCID male mice that were at least 8 weeks in age. The cells were suspended in 75 μl of RPMI medium 1640 (5% FBS) with 75 μl of Matrigel and injected into the flank region of the host under anesthesia. LNCaP cells were implanted subcutaneously into NOD-SCID male mice and the animals were castrated when the tumors were approximately 100 mm^3 (mean=[…]; n=18) and randomized into two groups. One week after castration the animals were treated every 3 days with an intratumoral dose of 30 mg/kg body weight of CB3.1 or matching volume of vehicle (control, DMSO). […] Fifteen days after the first injection of CB3.1, the tumors were 111.81%±38.12 the tumor volume on the day of the 1st injection. While 15 days after injection of DMSO, the tumors were 180.27%±111.67 the tumor volume on the day of the 1st injection. Serum PSA provides an indication of prognosis. For animals receiving CB3.1, serum PSA was 98.47%±170.51 on day 15 after the 1st injection. […] Tumor volume and serum PSA values were consistent with CB3.1 reducing tumor burden and serum PSA compared to vehicle-treated animals.

Another series relates to LNCaP xenografts. Nature of the series: LNCaP subcutaneous xenograft model in castrated NOD-SCID mice. The series is classed as in vivo. The conditions noted are these: intratumoral 30 mg/kg every 3 days. How it is done:
CB3.1 reduced the size of the tumors while DMSO-treated tumors continued to grow. Animals were castrated 7 days before 1st injection and tumor volume was set to 100%. Injections were made every 3 days at a dose of 30 mg/kg body weight every 3 days. B. Photograph is of a representative harvested LNCaP xenograft treated with CB3.1. The black bar represents 10 mm.
Six to eight-week old male athymic SCID mice were inoculated subcutaneously in the flank region via a 27-gauge needle with a 150 μl suspension of LNCaP or PC3 human prostate cancer cells (1×10^6 cells). The inoculations took place while the animal was under isofluorane anaesthesia. The tumor take rate is approximately 75%. Mice bearing tumors of 100 mm^3 were randomly assigned to treatment groups. Castration was performed as described below. Tumor volume (formula: L×W×H×0.5236) was measured in mice bearing LNCaP subcutaneous tumors that became palpable or visible and at least 40 mm^3. The animals were monitored daily and tumors were measured every 5 days.
Androgen withdrawal was completed by castration. Under isoflurane anaesthesia, a 5 mm vertical incision was used to gently withdraw the epididymal fat pad, to which the testis were attached, and to remove the testis from body. The cord connecting the testis to the blood supply was ligated with a suture, then cut. The cord was then returned to the abdominal cavity. Surgical suture was used to close the incision. To relieve pain, buprenorphine (0.05 mg/kg) was injected prior to surgery.
The subcutaneous xenograft model was used to test whether sintokamides that inhibit activation of the androgen receptor in vitro have any effect on these tumors. CB3.1 was tested in vivo using the LNCaP subcutaneous xenograft model. […] LNCaP human prostate cancer cells express endogenous androgen receptor (AR) and prostate-specific antigen (PSA), and progress to androgen independence in castrated hosts. LNCaP cells (10^6/ml) were implanted subcutaneously into NOD-SCID male mice that were at least 8 weeks in age. […]

Series [2] has as its target T1, AR NTD-Gal4DBD chimera protein (Gal4DBD-AR1-558) (Homo sapiens, UniProt P10275).
T1 construct: co-transfected with the expression vector for Gal4DBD-AR1-558; expressed in transfected cells; host or cells: LNCaP cells
T1 sequence (P10275 1-558): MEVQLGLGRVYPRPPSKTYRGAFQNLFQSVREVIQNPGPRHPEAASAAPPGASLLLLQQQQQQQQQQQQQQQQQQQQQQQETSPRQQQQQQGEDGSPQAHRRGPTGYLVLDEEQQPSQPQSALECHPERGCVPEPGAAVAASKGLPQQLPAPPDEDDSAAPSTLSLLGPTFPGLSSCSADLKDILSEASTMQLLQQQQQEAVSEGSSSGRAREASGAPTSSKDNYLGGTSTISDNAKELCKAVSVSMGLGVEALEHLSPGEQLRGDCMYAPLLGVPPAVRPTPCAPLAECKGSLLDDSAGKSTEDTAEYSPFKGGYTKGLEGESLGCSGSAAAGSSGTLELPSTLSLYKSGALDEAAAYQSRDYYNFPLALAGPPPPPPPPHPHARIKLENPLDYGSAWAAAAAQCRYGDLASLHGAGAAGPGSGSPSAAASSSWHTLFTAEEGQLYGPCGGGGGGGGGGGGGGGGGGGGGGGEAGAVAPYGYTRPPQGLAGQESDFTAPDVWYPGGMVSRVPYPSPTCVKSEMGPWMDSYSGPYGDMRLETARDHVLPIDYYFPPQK
Nature of the series: FSK-induced transactivation of the AR NTD (Gal4-luciferase reporter in LNCaP cells). The series is classed as cell-based. Particulars: 5 μg/ml, 1 hr pretreatment, FSK 50 μM for 24 h. How it is done:
Sintokamide A (CB3.1) (5 μg/ml) was tested for its ability to inhibit the AR NTD. LNCaP cells were co-transfected with the expression vector for Gal4DBD-AR1-558 and the complimentary 5XGal4UAS-luciferase reporter. Induction of this reporter by FSK is a measure of transactivation of the Gal4DBD-AR1-558 fusion protein (Sadar 1999 J. Biol. Chem. 274, 7777-7783).
To determine if CB3.1 blocked transactivation of the AR NTD, LNCaP cells were transfected with the plasmids for the AR NTD-Gal4DBD chimera protein and the Gal4-luciferase reporter and pretreated for 1 hr with CB3.1 (5 μg/ml) prior to addition of forskolin (FSK 50 μM) for an additional 24 h (see: Sadar et al. (1999) J. Biol. Chem. 274:7777-83).

The values below come from patent US9487479B2, “Small molecule inhibitors of N-terminus activation of the androgen receptor” (The University of British Columbia, priority 2008, dated 2016).

The structures appear in SMILES notation.

`CCC(=O)N[C@H](C[C@H](C)C(Cl)(Cl)Cl)C(=O)N1C(=O)C=C(OC)[C@@H]1C[C@H](C)C(Cl)Cl` [CB3.1, Sintokamide A]: the “change in animal body weight” value in series [1] (duration of the experiment, intratumoral 30 mg/kg every 3 days) is reported as “No change in animal body weight”. For the same molecule, in series [1] (finish of experiment, intratumoral 30 mg/kg every 3 days), the “animal body weight, finish” value is 25.0±1.4 grams. The “animal body weight, start” value in series [1] (start of experiment) came to 24.6±1.1 grams. The “tumor volume relative to the tumor volume on the day of the 1st injection” value with LNCaP xenografts (15 days after first injection, castrated mice) is recorded as 111.81%±38.12. Also, in the series with LNCaP xenografts (day 15 after the 1st injection), the “serum PSA” value is given as 98.47%±170.51. Further, the “effect on tumor volume” value with LNCaP xenografts (castrated mice) is on record as “showed a reduction of tumor volume”. Also, the “FSK-induced transactivation of the AR NTD” value in series [2] is “reduced FSK-induced transactivation of the AR NTD to baseline levels”.
